Measurements: US9687479B2, “Multisubstituted aromatic compounds as serine protease inhibitors” (VERSEON CORPORATION, priority 2013, dated 2017)

How the values were obtained:
Human KLKB1 = Human KLKB1 (Homo sapiens (Human), UniProt P03952); assay: KLKB1 kallikrein activity inhibition assay (chromogenic substrate S-2302); assay type: biochemical; details: Table B
Outline: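 Enzyme at a final 3 nM was assayed in 0.05 M Tris pH 7.4, 0.01 M NaCl and 0.2% PEG-8000 at room temperature, with compounds as ten-point threefold dilutions.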

Human thrombin = Human thrombin (Homo sapiens (Human), UniProt P00734); assay: Thrombin protease activity inhibition assay (chromogenic substrate S-2238); assay type: biochemical; details: 3 nM thrombin, 125 μM S-2238, 10 min pre-incubation, RT
Outline: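 Thrombin at 3 nM final in 0.05 M Tris pH 7.4, 0.015 M NaCl, 0.01% PEG-8000, at room temperature; compounds as ten-point three-fold dilutions.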

Chain of Human KLKB1 (P03952 391-638 limits assumed): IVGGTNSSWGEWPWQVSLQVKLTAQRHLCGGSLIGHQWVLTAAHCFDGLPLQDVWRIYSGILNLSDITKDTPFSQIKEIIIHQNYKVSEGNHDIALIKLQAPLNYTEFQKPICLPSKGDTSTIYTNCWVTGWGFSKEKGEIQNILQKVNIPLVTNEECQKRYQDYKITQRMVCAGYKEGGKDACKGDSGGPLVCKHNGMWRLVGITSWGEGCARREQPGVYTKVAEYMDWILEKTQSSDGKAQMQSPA
Chain of Human KLKB1 (P03952 20-390 partner limits assumed): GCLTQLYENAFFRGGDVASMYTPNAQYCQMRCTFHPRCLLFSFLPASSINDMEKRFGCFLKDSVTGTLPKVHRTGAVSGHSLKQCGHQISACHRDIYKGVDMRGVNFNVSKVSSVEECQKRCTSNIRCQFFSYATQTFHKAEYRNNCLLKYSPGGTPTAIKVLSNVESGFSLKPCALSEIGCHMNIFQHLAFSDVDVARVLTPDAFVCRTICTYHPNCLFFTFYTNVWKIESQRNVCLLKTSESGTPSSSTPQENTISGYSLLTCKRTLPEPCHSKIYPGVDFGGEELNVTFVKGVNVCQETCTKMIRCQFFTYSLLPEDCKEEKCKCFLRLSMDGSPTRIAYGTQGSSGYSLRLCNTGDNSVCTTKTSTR

SMILES | IC50 (Human KLKB1) [nM] | IC50 (Human thrombin) [nM]
COc1ccc(C(=O)n2nc(-c3cccn(Cc4ccccn4)c3=O)cc2NCc2ccc(Cl)s2)c(OC)c1 [Cmpd 125, 3-(5-[(5-chlorothiophen-2-yl)methyl]amino-1-[(2,4-dimethoxyphenyl)carbonyl]-1H-pyrazol-3-yl)-1-(pyridin-2-ylmethyl)-1,2-dihydropyridin-2-one] | 1000 to 10000 | < 100
O=C(c1ccc(N2CCOCC2)cc1)n1nc(-c2cccn(Cc3ccoc3)c2=O)cc1NCc1ccc(Cl)s1 [Cmpd 210, 3-(5-[(5-chlorothiophen-2-yl)methyl]amino-1-[4-(morpholin-4-yl)phenyl]carbonyl-1H-pyrazol-3-yl)-1-(furan-3-ylmethyl)-1,2-dihydropyridin-2-one] | 10000 to 100000 | < 100
O=C(c1ccoc1)n1nc(-c2cccn(Cc3ccccc3)c2=O)cc1NCc1ccc(Cl)s1 [Cmpd 50, 1-benzyl-3-(5-[(5-chlorothiophen-2-yl)methyl]amino-1-[(furan-3-yl)carbonyl]-1H-pyrazol-3-yl)-1,2-dihydropyridin-2-one] | 10000 to 100000 | < 100
O=C(c1ccoc1)n1nc(-c2cccn(Cc3cccs3)c2=O)cc1NCc1ccc(Cl)s1 [Cmpd 5, 3-(5-[(5-chlorothiophen-2-yl)methyl]amino-1-[(furan-3-yl)carbonyl]-1H-pyrazol-3-yl)-1-(thiophen-2-ylmethyl)-1,2-dihydropyridin-2-one] | 1000 to 10000 | < 100
Cn1cccc(-c2cc(NCc3ccc(Cl)s3)n(C(=O)C3(COC(=O)C4(CO)CC4)CC3)n2)c1=O [Cmpd 265, 1-[(5-[(5-chlorothiophen-2-yl)methyl]amino-3-(1-methyl-2-oxo-1,2-dihydropyridin-3-yl)-1H-pyrazol-1-yl)carbonyl]cyclopropylmethyl 1-(hydroxymethyl)cyclopropane-1-carboxylate] | 1000 to 10000 | < 100
COc1ccc(C(=O)n2nc(-c3cccn(CCN4CCOCC4)c3=O)cc2NCc2ccc(Cl)s2)c(OC)c1 [Cmpd 131, 3-(5-[(5-chlorothiophen-2-yl)methyl]amino-1-[(2,4-dimethoxyphenyl)carbonyl]-1H-pyrazol-3-yl)-1-[2-(morpholin-4-yl)ethyl]-1,2-dihydropyridin-2-one] | 100 to 1000 | < 100
O=C(c1ccccc1Cl)n1nc(-c2cccn(Cc3ccoc3)c2=O)cc1NCc1ccc(Cl)s1 [Cmpd 244, 3-1-[(2-chlorophenyl)carbonyl]-5-[(5-chlorothiophen-2-yl)methyl]amino-1H-pyrazol-3-yl-1-(furan-3-ylmethyl)-1,2-dihydropyridin-2-one] | 100 to 1000 | < 100
O=C(c1cccc2c1OCCO2)n1nc(-c2cccn(Cc3cccs3)c2=O)cc1NCc1ccc(Cl)s1 [Cmpd 117, 3-(5-[(5-chlorothiophen-2-yl)methyl]amino-1-[(2,3-dihydro-1,4-benzodioxin-5-yl)carbonyl]-1H-pyrazol-3-yl)-1-(thiophen-2-ylmethyl)-1,2-dihydropyridin-2-one] | > 100000 | < 100
COCC(C)(C)C(=O)n1nc(-c2cccn(Cc3ccccn3)c2=O)cc1NCc1ccc(Cl)s1 [Cmpd 101, 3-(5-[(5-chlorothiophen-2-yl)methyl]amino-1-(3-methoxy-2,2-dimethylpropanoyl)-1H-pyrazol-3-yl)-1-(pyridin-2-ylmethyl)-1,2-dihydropyridin-2-one] | 10000 to 100000 | < 100
O=C(c1cccc2c1OCCO2)n1nc(-c2cccn(Cc3ncccn3)c2=O)cc1NCc1ccc(Cl)s1 [Cmpd 116, 3-(5-[(5-chlorothiophen-2-yl)methyl]amino-1-[(2,3-dihydro-1,4-benzodioxin-5-yl)carbonyl]-1H-pyrazol-3-yl)-1-(pyrimidin-2-ylmethyl)-1,2-dihydropyridin-2-one] | 1000 to 10000 | < 100
O=C(c1ccsc1)n1nc(-c2cccn(Cc3ccsc3)c2=O)cc1NCc1ccc(Cl)s1 [Cmpd 203, 3-(5-[(5-chlorothiophen-2-yl)methyl]amino-1-[(thiophen-3-yl)carbonyl]-1H-pyrazol-3-yl)-1-(thiophen-3-ylmethyl)-1,2-dihydropyridin-2-one] | 100 to 1000 | < 100
COCCn1cccc(-c2cc(NCc3ccc(Cl)s3)n(C(=O)c3ccccc3)n2)c1=O [Cmpd 62, 3-(1-benzoyl-5-[(5-chlorothiophen-2-yl)methyl]amino-1H-pyrazol-3-yl)-1-(2-methoxyethyl)-1,2-dihydropyridin-2-one] | 1000 to 10000 | < 100
O=C(c1ccco1)n1nc(-c2cccn(Cc3ccccn3)c2=O)cc1NCc1ccccc1 [Cmpd 238, 3-[5-(benzylamino)-1-[(furan-2-yl)carbonyl]-1H-pyrazol-3-yl]-1-(pyridin-2-ylmethyl)-1,2-dihydropyridin-2-one] | 1000 to 10000 | < 100
O=C(c1ccccc1Cl)n1nc(-c2cccn(Cc3ccco3)c2=O)cc1NCc1ccc(Cl)s1 [Cmpd 243, 3-1-[(2-chlorophenyl)carbonyl]-5-[(5-chlorothiophen-2-yl)methyl]amino-1H-pyrazol-3-yl-1-(furan-2-ylmethyl)-1,2-dihydropyridin-2-one] | 100 to 1000 | < 100
O=C(c1ccsc1)n1nc(-c2cccn(Cc3ccoc3)c2=O)cc1NCc1ccc(Cl)s1 [Cmpd 196, 3-(5-[(5-chlorothiophen-2-yl)methyl]amino-1-[(thiophen-3-yl)carbonyl]-1H-pyrazol-3-yl)-1-(furan-3-ylmethyl)-1,2-dihydropyridin-2-one] | 100 to 1000 | < 100
COCC(C)(C)C(=O)n1nc(-c2cccn(Cc3ccco3)c2=O)cc1NCc1ccc(Cl)s1 [Cmpd 98, 3-(5-[(5-chlorothiophen-2-yl)methyl]amino-1-(3-methoxy-2,2-dimethylpropanoyl)-1H-pyrazol-3-yl)-1-(furan-2-ylmethyl)-1,2-dihydropyridin-2-one] | > 100000 | < 100
